Results published in patent US6335447B1, “Quinolonecarboxylic acid derivatives or salts thereof” (Toyama Chemical Co., Ltd., priority 1998, dated 2002).
Values after ≈ are worked out from the molar mass of the structure shown.

Columns and labels:
[1] = system: Staphylococcus aureus (S. aureus F-1924); experiment: MIC against Staphylococcus aureus, agar dilution; type: cell-based; conditions: Mueller Hinton agar, 37° C., 20 hours, read-out: MIC (lowest concentration which inhibited visible growth of the cells)
Method: According to the standard method of Japan Chemotherapy Society [CHEMOTHERAPY, Vol. 29, No. 1, p. 76-79 (1981)], Staphylococcus aureus (S. aureus F-1924) was cultivated in Mueller Hinton broth [manufactured by Difco] at 37° C. for 20 hours and the cell density was adjusted to 10^6 cells/plate (10^8 cells/ml). A loopful of the bacterial suspension was inoculated on Mueller Hinton agar medium [manufactured by Difco] and incubated at 37° C. for 20 hours. Whether or not the growth of cells occurred was observed and MIC (μg/ml) was defined as the lowest concentration which inhibited visible growth of the cells.

ddy male mice [2] = experiment: Micronucleus test; type: in vivo; conditions: intraperitoneally at 500 mg/Kg
Method: According to the description in Dokusei Shiken Koza 12 (Chijinshokan, 1991), pages 147-153, micronucleus test was carried out using ddy male mice. As a result, the compounds (a), (c), (d) and (g) were negative when administered intraperitoneally at 500 mg/Kg.

ddy male mice [3] = experiment: Acute toxicity; type: in vivo; conditions: three ddy male mice; intraperitoneally 500 mg/Kg
Method: Three ddy male mice were intraperitoneally administered with 500 mg/Kg of (a), (b), (d) or (g).

SMILES | MIC [1] [µg/mL] | Micronucleus test result (ddy male mice [2]) | Acute toxicity (death of animals) (ddy male mice [3])
Cc1c(-c2ccc(N)nc2)ccc2c(=O)c(C(=O)O)cn(C3CC3)c12 [h, 7-(6-Amino-3-pyridyl)-1-cyclopropyl-8-methyl-4-oxo-1,4-dihydro-3-quinolinecarboxylic acid] | 0.1 (≈ 0.298 µM) |  | 
Cc1ccc(-c2ccc3c(=O)c(C(=O)O)cn(C4CC4)c3c2C)cn1 [c, 1-Cyclopropyl-7-(6-methyl-3-pyridyl)-8-methyl-4-oxo-1,4-dihydro-3-quinolinecarboxylic acid] | 0.39 (≈ 1.17 µM) | negative | 
CC1CCc2c(N3CCC(O)CC3)c(F)cc3c(=O)c(C(=O)O)cn1c23 (racemic) [k, (±)-9-Fluoro-6,7-dihydro-8-(4-hydroxy-1-piperidinyl)-5-methyl-1-oxo-1-1H,5H-benzo[i,j]quinolizine-2-carboxylic acid, reference compound] | 1.56 (≈ 4.33 µM) |  | 
Cc1cc(-c2ccc3c(=O)c(C(=O)O)cn(C4CC4)c3c2C)cc(CO)n1 [b, 1-Cyclopropyl-7-(2-hydroxymethyl-6-methyl-4-pyridyl)-8-methyl-4-oxo-1,4-dihydro-3-quinolinecarboxylic acid] | 0.39 (≈ 1.07 µM) |  | In no case, the animals were dead
COc1c(-c2cnc(N)c(C)c2)ccc2c(=O)c(C(=O)O)cn(C3CC3)c12 [f, 7-(6-Amino-5-methyl-3-pyridyl)-1-cyclopropyl-8-methoxy-4-oxo-1,4-dihydro-3-quinolinecarboxylic acid] | 0.39 (≈ 1.07 µM) |  | 
Cc1cc(-c2ccc3c(=O)c(C(=O)O)cn(C4CC4)c3c2C)cnc1N [g, 7-(6-Amino-5-methyl-3-pyridyl)-1-cyclopropyl-8-methyl-4-oxo-1,4-dihydro-3-quinolinecarboxylic acid] | 0.1 (≈ 0.286 µM) | negative | In no case, the animals were dead
Cc1cc(-c2cc(C)c3c(=O)c(C(=O)O)cn(C4CC4)c3c2C)cc(C)n1 [i, 1-Cyclopropyl-7-(2,6-dimethyl-4-pyridyl)-5,8-dimethyl-4-oxo-1,4-dihydro-3-quinolinecarboxylic acid] | 0.2 (≈ 0.552 µM) |  | 
Cc1cc(-c2ccc3c(=O)c(C(=O)O)cn(C4CC4)c3c2C)cc(C)n1 [a, 1-Cyclopropyl-7-(2,6-dimethyl-4-pyridyl)-8-methyl-4-oxo-1,4-dihydro-3-quinolinecarboxylic acid] | 0.2 (≈ 0.574 µM) | negative | In no case, the animals were dead
Cc1cc(-c2ccc3c(=O)c(C(=O)O)cn(C4CC4)c3c2OC(F)F)cnc1N [e, 7-(6-Amino-5-methyl-3-pyridyl)-1-cyclopropyl-8-(difluoromethoxy)-4-oxo-1,4-dihydro-3-quinolinecarboxylic acid] | 0.78 (≈ 1.94 µM) |  | 
Cc1cc(-c2cc(N)c3c(=O)c(C(=O)O)cn(C4CC4)c3c2C)cnc1C [j, 5-Amino-1-cyclopropyl-7-(5,6-dimethyl-3-pyridyl)-8-methyl-4-oxo-1,4-dihydro-3-quinolinecarboxylic acid] | 0.39 (≈ 1.07 µM) |  | 
CNc1ncc(-c2ccc3c(=O)c(C(=O)O)cn(C4CC4)c3c2C)cc1C [d, 1-Cyclopropyl-8-methyl-7-[5-methyl-6-(methylamino)-3-pyridyl]-4-oxo-1,4-dihydro-3-quinolinecarboxylic acid] | 0.2 (≈ 0.55 µM) | negative | In no case, the animals were dead
